Earlier results as cited in US20240173254A1, “TASIPIMIDINE FORMULATIONS AND USE THEREOF” (ORION CORPORATION, priority 2021, published 2024).

Tests used:
[1] = in vivo

COc1cccc2c1CCOC2C1=NCCN1 (centres unmarked) [tasipimidine, 2-(5-methoxyisochroman-1-yl)-4,5-dihydro-1H-imidazole]
elimination half-life (t1/2) compared with clonidine [1]: shorter elimination half-life (t1/2) than clonidine
relieving situational anxiety and fear triggered by noise or owner departure (dogs): effective
